# Tested on: 931267-113-T-J1-PDC multicell spheroid viability
# Assay: Anticancer human tumor 931267-113-T-J1-PDC patient-derived colon adenocarcinoma cell line growth inhibition [PI3K]
# Conditions: for IC50: curve of first compound; for viability, T/C: stronger effect = lower value
# From the text: Combinatorial screen of targeted agents with the PI3K inhibitors inavolisib, alpelisib, duvelisib, and copanlisib in multi-cell type tumor spheroids
# A high-throughput screen of multi-cell type tumor spheroids was designed to identify active combinations of targeted small molecules and PI3K pathway inhibitors. Complex spheroids include a stromal component modeled by human endothelial cells (HUVEC) and fibroblasts modeled by human mesenchymal stem cells (MSCs). The concentration ranges selected for each drug and investigational agent were based upon clinically achievable concentrations if the clinical Cmax of the agent was known.
# Compounds. The drugs and investigational agents: inavolisib (NSC800729), alpelisib (NSC765974), duvelisib (NSC772469), copanlisib (NSC816437), ipatasertib (NSC767898), afuresertib (NSC778305), talazoparib (NSC767125), sapanisertib (NSC764658), selumetinib (NSC741078), tovorafenib (DAY101, NSC766906), vemurafenib (NSC761431), ravoxertinib (NSC781343), sotorasib (NSC818433), MRTX1133 (NSC 836407), abemaciclib (NSC 768073), palbociclib (NSC758247), venetoclax (NSC 766270), SY5609 (NSC837396), enzalutamide (NSC755605), and darolutamide (NSC825331), were obtained from the National Cancer Institute (NCI) Developmental Therapeutics Program Chemical Repository. The FDA-approved anticancer drug set is available from the NCI Developmental Therapeutics Program. […] The stock solutions were prepared in dimethyl sulfoxide (DMSO, Sigma-Aldrich, St. Louis, MO, cat. D2650) at 800-fold the tested concentration and stored at -70 degrees C prior to their use. All drugs and investigational agents were tested over a range starting from a high concentration at or near the clinical Cmax and decreasing in half-log increments. If the clinical Cmax for an agent had not been determined, the highest concentration tested was 10 microM.
# Cell Culture. All cells were maintained in an incubator at 37 degrees C and 5% CO2 with 95% humidity. The PDC lines were cultured according to standard operating procedures established by the NCI PDMR (https://pdmr.cancer.gov/sops/default.htm). All PDCs were thawed and cultured in Matrigel-coated flasks prepared with a working solution of 1X Ham's F-12 nutrient mix, without supplementation (Invitrogen, Waltham, MA, cat. 11765054), 100 U/mL penicillin-streptomycin (Invitrogen, cat. 15140122), and 2.5% Matrigel (Corning Inc., Corning, NY, cat. 354248) for the first three passages. The 354836-022-R-J1-PDC, 475296-252-R-J1-PDC, and 997726-040-R-J2-PDC lines were cultured in 6A media, which includes advanced DMEM/F-12 (Thermo Fisher Scientific, cat. 12634028), 10 mM HEPES (Thermo Fisher Scientific, cat. 15630080), 1X GlutaMAX supplement (Thermo Fisher Scientific, cat. 35050061), 0.1 mg/mL primocin (InvivoGen, San Diego, CA, cat. ant-pm-2), 10% defined fetal bovine serum, heat inactivated (HyClone Laboratories Inc., Logan, UT, cat. SH30070.03HI), 50% L-WRN conditioned media (ATCC, cat. CRL-3276), 1.25 mM N-Acetyl-L-cysteine (Sigma-Aldrich, cat. A9165), 10 mM nicotinamide (Sigma-Aldrich, cat. N0636), 1X B-27 supplement (Thermo Fisher Scientific, cat. 17504044), 1X N-2 supplement (Thermo Fisher Scientific, cat. 17502048), and 10 microM Y-27632 dihydrochloride (Tocris Bioscience, Bristol, United Kingdom, cat. 1254). The 624824-186-R-J2-PDC line was cultured in 6C/Colon 1B media, which includes all 6A media components plus 50 ng/mL human EGF recombinant protein (Thermo Fisher Scientific, cat. PHG0311). […]
# [1] = second compound 0.00316 µM, first compound 0.0316 µM
# [2] = second compound 0.00316 µM, first compound 0.1 µM
# [3] = second compound 0.00316 µM, first compound 0.316 µM
# [4] = second compound 0.00316 µM, first compound 1 µM
# [5] = second compound 0.00316 µM, first compound 3.16 µM
# [6] = second compound 0.00316 µM, first compound 10 µM
# [7] = second compound 0.01 µM, first compound 0.0316 µM
# [8] = second compound 0.01 µM, first compound 0.1 µM
# [9] = second compound 0.01 µM, first compound 0.316 µM
# [10] = second compound 0.01 µM, first compound 1 µM
# [11] = second compound 0.01 µM, first compound 3.16 µM
# [12] = second compound 0.01 µM, first compound 10 µM
# [13] = second compound 0.0316 µM, first compound 0.0316 µM
# [14] = second compound 0.0316 µM, first compound 0.1 µM
# [15] = second compound 0.0316 µM, first compound 0.316 µM
# [16] = second compound 0.0316 µM, first compound 1 µM
# [17] = second compound 0.0316 µM, first compound 3.16 µM
# [18] = second compound 0.0316 µM, first compound 10 µM
# [19] = second compound 0.1 µM, first compound 0.0316 µM
# [20] = second compound 0.1 µM, first compound 0.1 µM
# [21] = second compound 0.1 µM, first compound 0.316 µM
# [22] = second compound 0.1 µM, first compound 1 µM
# [23] = second compound 0.1 µM, first compound 3.16 µM
# [24] = second compound 0.1 µM, first compound 10 µM
# [25] = second compound 0.316 µM, first compound 0.0316 µM
# [26] = second compound 0.316 µM, first compound 0.1 µM
# [27] = second compound 0.316 µM, first compound 0.316 µM
# [28] = second compound 0.316 µM, first compound 1 µM
# [29] = second compound 0.316 µM, first compound 3.16 µM
# [30] = second compound 0.316 µM, first compound 10 µM
# [31] = second compound 1 µM, first compound 0.0316 µM
# [32] = second compound 1 µM, first compound 0.1 µM
# [33] = second compound 1 µM, first compound 0.316 µM
# [34] = second compound 1 µM, first compound 1 µM
# [35] = second compound 1 µM, first compound 3.16 µM
# [36] = second compound 1 µM, first compound 10 µM
# 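Note: viability read 7 days after compound addition.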
structure (smiles),measurement,setting,value
CC1(C)CCC(CN2CCN(c3ccc(C(=O)NS(=O)(=O)c4ccc(NCC5CCOCC5)c([N+](=O)[O-])c4)c(Oc4cnc5[nH]ccc5c4)c3)CC2)=C(c2ccc(Cl)cc2)C1 + CC(Nc1ccc2c(c1)OCCn1cc(N3C(=O)OCC3C(F)F)nc1-2)C(N)=O,IC50,second compound 0.00316 µM,6.16 µM
same,IC50,second compound 0.01 µM,6.33 µM
same,IC50,second compound 0.0316 µM,5.56 µM
same,IC50,second compound 0.1 µM,5.22 µM
same,IC50,second compound 0.316 µM,4.86 µM
same,IC50,second compound 1 µM,4.21 µM
same,"viability, T/C",[1],91.7%
same,"viability, T/C",[2],102%
same,"viability, T/C",[3],105%
same,"viability, T/C",[4],106%
same,"viability, T/C",[5],94.3%
same,"viability, T/C",[6],17.5%
same,"viability, T/C",[7],104%
same,"viability, T/C",[8],98.5%
same,"viability, T/C",[9],97.5%
same,"viability, T/C",[10],107%
same,"viability, T/C",[11],96.2%
same,"viability, T/C",[12],19.3%
same,"viability, T/C",[13],112%
same,"viability, T/C",[14],104%
same,"viability, T/C",[15],95.8%
same,"viability, T/C",[16],91.4%
same,"viability, T/C",[17],87.4%
same,"viability, T/C",[18],14.5%
same,"viability, T/C",[19],94.2%
same,"viability, T/C",[20],88.2%
same,"viability, T/C",[21],91.5%
same,"viability, T/C",[22],97.9%
same,"viability, T/C",[23],78.2%
same,"viability, T/C",[24],13.7%
same,"viability, T/C",[25],81.7%
same,"viability, T/C",[26],89%
same,"viability, T/C",[27],80.2%
same,"viability, T/C",[28],75.4%
same,"viability, T/C",[29],73%
same,"viability, T/C",[30],13.6%
same,"viability, T/C",[31],78.5%
same,"viability, T/C",[32],77.1%
same,"viability, T/C",[33],73.9%
same,"viability, T/C",[34],69.7%
same,"viability, T/C",[35],63.3%
same,"viability, T/C",[36],14.1%
C[C@@H](NC(=O)c1ncnc(N)c1Cl)c1ncc(C(=O)Nc2cc(C(F)(F)F)c(Cl)cn2)s1 + CC(Nc1ccc2c(c1)OCCn1cc(N3C(=O)OCC3C(F)F)nc1-2)C(N)=O,IC50,second compound 0.00316 µM,> 10 µM
same,IC50,second compound 0.01 µM,> 10 µM
same,IC50,second compound 0.0316 µM,> 10 µM
same,IC50,second compound 0.1 µM,8.97 µM
same,IC50,second compound 0.316 µM,7.88 µM
same,IC50,second compound 1 µM,4.87 µM
same,"viability, T/C",[1],114%
same,"viability, T/C",[2],129%
same,"viability, T/C",[3],110%
same,"viability, T/C",[4],121%
same,"viability, T/C",[5],90.8%
same,"viability, T/C",[6],75.3%
same,"viability, T/C",[7],116%
same,"viability, T/C",[8],108%
same,"viability, T/C",[9],111%
same,"viability, T/C",[10],118%
same,"viability, T/C",[11],101%
same,"viability, T/C",[12],66.7%
same,"viability, T/C",[13],99.7%
same,"viability, T/C",[14],124%
same,"viability, T/C",[15],119%
same,"viability, T/C",[16],110%
same,"viability, T/C",[17],97.9%
same,"viability, T/C",[18],63.6%
same,"viability, T/C",[19],116%
same,"viability, T/C",[20],93.3%
same,"viability, T/C",[21],101%
same,"viability, T/C",[22],95.9%
same,"viability, T/C",[23],78%
same,"viability, T/C",[24],46.4%
same,"viability, T/C",[25],94%
same,"viability, T/C",[26],97.5%
same,"viability, T/C",[27],96.4%
same,"viability, T/C",[28],87%
same,"viability, T/C",[29],75.2%
same,"viability, T/C",[30],43.5%
same,"viability, T/C",[31],83%
same,"viability, T/C",[32],88.8%
same,"viability, T/C",[33],80.7%
same,"viability, T/C",[34],77.2%
same,"viability, T/C",[35],62.3%
same,"viability, T/C",[36],29.7%
